Assay results taken from patent US20060160773A1, “Combretastatin derivatives with cytotoxic action” (priority 2003, published 2006).

Legend:
[1] = Cancer Res., 62:3408-3416, 2002; cited from earlier work
[2] = system: HCT 116 human colorectal carcinoma; assay: Cytotoxicity test (sulforodamine B), HCT 116; format: cell-based; details: Homo sapiens, HCT-116, read-out: IC50 ± SE
Protocol: (§1) The cytotoxic effect of our derivatives was evaluated in series of human and murine cell lines.
(§2) The following cell lines, purchased from ATCC, were cultured according to the manufacturer's instructions: MeWo human melanoma, NCI-H460 human lung cancer, LoVo human colon adenocarcinoma, PC3 human prostate carcinoma, MES-SA human uterine sarcoma, HCT 116 human colorectal carcinoma, MCF-7 human breast carcinoma.
(§3) For the cytotoxicity test the cells were seeded at variable densities according to cell type in 96-well plates in normal culture medium (200 μl/well) and incubated for 24 hours at 37° C. On the next day, the study substances were added at scalar concentrations and the cells were incubated for a further 24 hours at 37° C. in a humidified atmosphere containing 5% CO2. At the end of the incubation period the medium containing the substances was removed and three washings with PBS were performed. At the end of the washings 200 μl/well of fresh medium were added and the plates were incubated at 37° C. for a further 48 hours. At the end of this incubation period the culture medium was removed by overturning the plates and 200 μl/well of PBS and 50 μl of 80% cold trichloroacetic acid (TCA) were added. The plates were then incubated in ice. After 1 h the TCA was removed, the plates were washed three times by immersion in distilled water and dried first on blotting paper and then in the oven. 200 μl of 0.4% sulforodamine B in 1% acetic acid were then added to all wells. The plates were incubated at room temperature for a further 30 minutes. The sulforodamine B was removed by overturning, the plates were washed three times by immersion in 1% acetic acid, and then dried first on blotting paper and then in the oven. 200 μl of Tris base 10 mM were then added to all wells and the plates were placed under stirring for at least 20 min. The optical density was measured by spectrophotometric readout at 540 nm.
(§4) In the same table are reported the IC50 of ST2897, ST2898 and ST2899 on BMEC.

MeWo human melanoma = assay: Cytotoxicity test (sulforodamine B), MeWo; format: cell-based; details: Homo sapiens, read-out: IC50 ± SE
Protocol: as §1, §2, §3, §4

[3] = system: HT29 human colon adenocarcinoma line; assay: Cytotoxicity test (sulforodamine B), HT29; format: cell-based; details: Homo sapiens, HT-29, read-out: IC50 ± SE
Protocol: as §1
(§5) The M109 murine lung cancer line, the HT29 human colon adenocarcinoma line, the A2780 human ovarian carcinoma line, obtained from the Milan Tumour Institute, were cultured in RPMI containing 10% FBS and antibiotics.
as §3, §4

[4] = system: B16/BL6 murine melanoma line; assay: Cytotoxicity test (sulforodamine B), B16/BL6; format: cell-based; details: Mus musculus, B16-BL6, read-out: IC50 ± SE
Protocol: as §1
The B16/BL6 murine melanoma line, obtained from the M. Negri Institute in Milan, was cultured in DMEM containing 10% FBS and antibiotics.
as §3, §4

[5] = system: EA-hy926, an immortalised hybridoma of HUVEC and adenocarcinoma cells; assay: Cytotoxicity test (sulforodamine B), EA-hy926; format: cell-based; details: Homo sapiens, EA.hy 926; EAHY.926; 24 h exposure, 48 h recovery, SRB
Protocol: as §1
(§6) Bovine microcirculatory endothelial cells (BMEC), isolated from bovine adrenal glands, were maintained in culture in DMEM containing 20% FBS, 50 μg/ml of bovine brain extract (BBE), 50 units/ml of heparin (SIGMA), 100 units/ml of gentami-cin (SIGMA) and 10 mg/ml of L-glutamine (Hyclone). EA-hy926, an immortalised hybridoma of HUVEC and adenocarcinoma cells, obtained from the University of Bari Department of Biomedical Sciences and Human Oncology, was cultured in DMEM added with 10% FBS and gentamicin.
(§7) For the cytotoxicity test the cells were seeded at variable densities according to cell type in 96-well plates in normal culture medium (200 μl/well) and incubated for 24 hours at 37° C. On the next day, the study substances were added at scalar concentrations and the cells were incubated for a further 24 hours at 37° C. in a humidified atmosphere containing 5% CO2. At the end of the incubation period the medium containing the substances was removed and three washings with PBS were performed. At the end of the washings 200 μl/well of fresh medium were added and the plates were incubated at 37° C. for a further 48 hours. […] The optical density was measured by spectrophotometric readout at 540 nm. […]

[6] = system: A2780 human ovarian carcinoma line; assay: Cytotoxicity test (sulforodamine B), A2780; format: cell-based; details: Homo sapiens, A2780, read-out: IC50 ± SE
Protocol: as §1, §5, §3, §4

[7] = system: MES-SA human uterine sarcoma; assay: Cytotoxicity test (sulforodamine B), MES-SA; format: cell-based; details: Homo sapiens, MES-SA, read-out: IC50 ± SE
Protocol: as §1, §2, §3, §4

[8] = system: NCI-H460 human lung cancer; assay: Cytotoxicity test (sulforodamine B), NCI-H460; format: cell-based; details: Homo sapiens, NCI-H460, read-out: IC50 ± SE
Protocol: as §1, §2, §3, §4

[9] = system: LoVo human colon adenocarcinoma; assay: Cytotoxicity test (sulforodamine B), LoVo; format: cell-based; details: 24 h exposure, 48 h recovery, SRB
Protocol: as §1, §2
as §7, with “hours. At the end of this incubation period the culture medium was removed by overturning the plates and 200 μl/well of PBS and 50 μl of 80% cold trichloroacetic acid (TCA) were added. The plates were then incubated in ice.” for “hours.”

[10] = system: PC3 human prostate carcinoma; assay: Cytotoxicity test (sulforodamine B), PC3; format: cell-based; details: 24 h exposure, 48 h recovery, SRB
Protocol: as §1, §2
as §7, with “hours. At the end of this incubation period the culture medium was removed by overturning the plates and 200 μl/well of PBS and 50 μl of 80% cold trichloroacetic acid (TCA) were added. The plates were then incubated in ice.” for “hours.”

[11] = system: MCF-7 human breast carcinoma; assay: Cytotoxicity test (sulforodamine B), MCF-7; format: cell-based; details: Homo sapiens, MCF7, read-out: IC50 ± SE
Protocol: as §1, §2, §3, §4

[12] = system: Bovine microcirculatory endothelial cells (BMEC); assay: Cytotoxicity test (sulforodamine B), BMEC; format: cell-based; details: Bos taurus, Endothelial cell, read-out: IC50 ± SE
Protocol: as §1, §6, §3, §4

[13] = system: tubulin rich in microtubule-associated proteins (MAP); assay: Tubulin polymerisation inhibition test; format: biochemical; details: vs not treated control; mean of 3 independent determinations; concentration not given
Protocol: The tubulin polymerisation test in the presence of ST2151 was performed as described by Shiff et al. (Biochemistry, 1981, 20: 3247-3252) with a number of modifications. In brief, tubulin rich in microtubule-associated proteins (MAP) was diluted to the concentration of 3 mg/ml in PEM buffer [100 mM PIPES (pH 6.9), 1 mM EGTA and 1 mM MgCl2] containing 1 mM GTP (GPEM), and maintained in ice. The solution was placed at 37° C. and polymerisation was monitored by measuring absorbance at 340 nm every 25 seconds with a spectrophotometer equipped with an electronic temperature control device (Cobas-Mira Analyzer). After 5 minutes, when the polymerised tubulin had reached a steady state, 5 μM Taxol, 1.35 μM Colcemid, or ST2151 were added and the absorbance measurements were taken for a further 15 min. The IC50 values were determined by non-linear regression analysis using “Prism GraphPad” software. Results were expressed as % inhibition of tubulin polymerization vs not treated control.
The value indicated in Table 2 is the mean of 3 independent determinations.

[14] = system: M109 murine lung cancer line; assay: Cytotoxicity test (sulforodamine B), M109; format: cell-based; details: Mus musculus, 24 h exposure, 48 h recovery, SRB
Protocol: as §1, §5
as §3, with “200 μl of 0.4% sulforodamine B in 1% acetic acid were then added to all wells. The plates were incubated at room temperature for a further 30 minutes. The sulforodamine B was removed by overturning, the plates were washed three times by immersion in 1% acetic acid, and then dried first on blotting paper and then in the oven. 200 μl of Tris base 10 mM were then added to all wells and the plates were placed under stirring for at least 20 min.” left out, “nm. […]” for “nm.”

[15] = Evaluation of cardiovascular parameters (blood pressure, heart rate) in anaesthetised rats; format: in vivo; details: 20 or 40 mg/kg injected in the jugular vein, anaesthetised Wistar rats (FIG. 1)
Protocol: Combretastatin A4, its prodrug ST2494 and our water soluble selected compounds ST2495 and ST2496, diluted at the doses of 20 or 40 mg/kg in saline solution or for combretastatin A4 in 5% DMSO, were injected in the jugular vein of Wistar rats anaesthetised with 55 mg/kg Nembutal. The parameter considered were blood pressure and heart rate.

cell growth = details: background statement; cited from earlier work
[16] = system: Human umbilical vein endothelial cells (HUVEC); assay: Cytotoxicity test (sulforodamine B), HUVEC; format: cell-based; details: Homo sapiens, read-out: IC50 ± SE
Protocol: as §1
Human umbilical vein endothelial cells (HUVEC), from the BioWhittaker company, were maintained in EGM-2 culture medium (BioWhittaker).
as §3, §4

**Q.** With `COc1ccc(/C=C\c2cc(OC)c(OC)c(OC)c2)cc1OP(=O)(O)O` [combretastatin A4-P] as the compound, how does the “side effects in Phase I study” value [1] read?
**A.** episodes of dose-limiting toxicity, including cases of acute coronary syndrome

**Q.** With `COc1cc(/C=C\c2cc(O)c3ccoc3c2)cc(OC)c1OC` [ST2179, Cis-6-[2-(3,4,5-trimethoxy-phenyl)-vinyl]-benzofuran-4-ol] as the compound, how does the IC50 [2] read?
**A.** 54 ± 9 nM

**Q.** What about the IC50 (MeWo human melanoma) of the same compound?
**A.** 71 ± 17 nM

**Q.** What about the IC50 [3] of the same compound?
**A.** 990 ± 40 nM

**Q.** And the IC50 [4]?
**A.** 44 ± 3.8 nM

**Q.** And the IC50 [5]?
**A.** 40 ± 3.9 nM

**Q.** And the IC50 [6]?
**A.** 50 ± 2 nM

**Q.** And the IC50 [7]?
**A.** 40 ± 4 nM

**Q.** And the IC50 [8]?
**A.** 53 ± 1.3 nM

**Q.** What about the IC50 [9] of the same compound?
**A.** 490 ± 0.04 nM

**Q.** And the IC50 [10]?
**A.** 100 ± 0.01 nM

**Q.** And the IC50 [11]?
**A.** 38 ± 3 nM

**Q.** And the IC50 [12]?
**A.** 49 ± 1 nM

**Q.** And the “% inhibition of tubulin polymerization” value [13]?
**A.** 44.0%

**Q.** What about the IC50 [14] of the same compound?
**A.** 93 ± 6 nM

**Q.** For `COc1ccc(/C=C\c2cc(OC)c(OC)c(OC)c2)cc1O` [Combretastatin A4, Combretastatin A-4, reference compound], which blood pressure [15] is on record?
**A.** significant increase in blood pressure

**Q.** What about the heart rate [15] of the same compound?
**A.** progressive decrease of heart rate

**Q.** And the “concentration inhibiting cell growth” value (cell growth)?
**A.** of the order of nanomoles

**Q.** Which IC50 [16] does the source give for `COc1cc(/C=C\c2cc(O)c3ccsc3c2)cc(OC)c1OC` [ST2151, Cis-6-[2-(3,4,5-trimethoxy-phenyl)-vinyl]-benzo[b]thiophen-4-ol] here?
**A.** 49 ± 0.64 nM

**Q.** And the IC50 [2]?
**A.** 84 ± 3.8 nM

**Q.** And the IC50 (MeWo human melanoma)?
**A.** 68 ± 5 nM

**Q.** And the IC50 [3]?
**A.** 900 ± 65 nM

**Q.** What about the IC50 [4] of the same compound?
**A.** 85 ± 0.5 nM

**Q.** What about the IC50 [5] of the same compound?
**A.** 52 ± 4.9 nM

**Q.** And the IC50 [6]?
**A.** 70 ± 2 nM

**Q.** And the IC50 [7]?
**A.** 86 ± 10 nM

**Q.** And the IC50 [8]?
**A.** 74 ± 2.9 nM

**Q.** What about the IC50 [9] of the same compound?
**A.** 360 ± 0.01 nM

**Q.** And the IC50 [10]?
**A.** 120 ± 0.01 nM

**Q.** And the IC50 [11]?
**A.** 66 ± 2.7 nM

**Q.** What about the IC50 [12] of the same compound?
**A.** 87 ± 1 nM

**Q.** And the “% inhibition of tubulin polymerization” value [13]?
**A.** 37.1%

**Q.** What about the IC50 [14] of the same compound?
**A.** 490 ± 30 nM
